Drawing on ChEMBL document CHEMBL4619780, “Structure-Activity Relationship Studies of Retro-1 Analogues against Shiga Toxin” (J Med Chem, 2020), this text covers EC50 for 27 compounds.

One test is described as follows: cells. The test is classed as cell-based. To be noted: Escherichia coli, HeLa.
In the case of `Cc1ccc(C2Nc3ccccc3C(=O)N2c2ccccc2)s1` (configuration not stated), the midpoint of the response, the EC50, lay at 27.3 µM. This counts as double-digit micromolar.

As for `CCC(=O)N1CC(=O)Nc2ccc(Br)cc2C1c1ccccc1` (racemic), a half-maximal response (EC50) required 6.2 µM.

Another test can be described thus: cells. The test is classed as cell-based. To be noted: Escherichia coli, HeLa. This is another data set of the same source.
In turn, `CC[C@@H](C(=O)[C@@H](C)[C@@H](O)[C@H](C)CCc1ccc(C)c(O)c1C(=O)O)[C@H]1O[C@](CC)([C@H]2CC[C@](O)(CC)[C@H](C)O2)C[C@@H]1C` [LASALOCID] yielded a 50% effective concentration (EC50) of 2 µM.

The nature of a further test: cells. The test is classed as cell-based. As to conditions: Escherichia coli, HeLa. This is another data set of the same source.
`C[C@H]1CCC/C=C/[C@@H]2C[C@H](O)C[C@H]2[C@H](O)/C=C/C(=O)O1` [BREFELDIN A] showed a concentration giving a half-maximal response (EC50) of 5 µM. This counts as single-digit micromolar.

A short description of a further test: Inhibition of Escherichia coli shiga toxin.
Conditions: not given
In turn, `CC1(C)CC(/C=C/c2ccccc2)=Nc2ccccc2N1` displayed a 50% effective concentration (EC50) of 50 µM.

Regarding `Cc1cccc(C)c1Nc1c(-c2cc(Br)ccc2O)nc2[nH]cnn12`, the EC50 stood at 25 µM.

The compound `O=[N+]([O-])c1ccc(CSc2ncnc3c2ncn3[C@@H]2O[C@H](CO)[C@@H](O)[C@H]2O)cc1` [NITROBENZYLMERCAPTOPURINE RIBONUCLEOSIDE] yielded a concentration giving a half-maximal response (EC50) of 25 to 100 µM.

The compound `CC/C(=C(\c1ccccc1)c1ccc(OCCN(C)C)cc1)c1ccccc1` [TAMOXIFEN] registered an EC50 of 2 to 10 µM.

A short description of another test: cells. The class given is cell-based. To be noted: Escherichia coli, HeLa. The source holds these as a separate data set.
`CCCN1CC(=O)Nc2ccc(Br)cc2C1c1ccccc1` (configuration not stated) had an EC50 of 3.98 µM.

In turn, `CCCN1CC(=O)Nc2ccc(Br)cc2C1c1ccccc1F` (configuration not stated) showed an EC50 of 3.87 µM.

As to `O=C1CN(C2CCCC2)C(c2ccccc2)c2cc(Cl)ccc2N1` (configuration not stated), the 50% effective concentration (EC50) worked out at 0.844 µM.

In turn, `O=C1CN(C2CCCC2)C(c2ccccc2)c2cc(Br)ccc2N1` (configuration not stated) displayed an EC50 of 0.6 µM.

The compound `CCCN1CC(=O)Nc2ccc(Br)cc2C1c1ccc(F)cc1F` (configuration not stated) registered an EC50 of 12.8 µM. This EC50 lies about 21-fold higher than the previous one.

`O=C1CN(C2CCCCC2)C(c2ccccc2)c2cc(Br)ccc2N1` (configuration not stated) registered a concentration giving a half-maximal response (EC50) of 4.7 µM.

Take `CCN1CC(=O)Nc2ccc(Br)cc2C1c1ccccc1` (configuration not stated): the 50% effective concentration (EC50) amounted to 8.81 µM. This EC50 is about 1.9-fold higher than that of the compound before.

Consider `O=C1CN(C2CCCC2)C(c2ccccc2)c2ccccc2N1` (configuration not stated), for which the EC50 was determined as 6.11 µM.

The compound `O=C1CN(C2CCCC2)[C@H](c2ccccc2)c2cc(I)ccc2N1` displayed an EC50 of 0.09 µM. Compared with the last compound, the EC50 is about 68-fold lower.

On to `CCCN1CC(=O)Nc2ccc(I)cc2C1c1ccccc1` (configuration not stated), for which the midpoint of the response, the EC50, lay at 1.98 µM. Against the preceding compound, the EC50 is about 22-fold higher.

On to `C#CCCN1CC(=O)Nc2ccc(Br)cc2C1c1ccccc1` (configuration not stated), for which the concentration for a half-maximal effect (EC50) is 6.5 µM.

`O=C1CN(C2CCCC2)C(c2ccccc2)c2cc(F)ccc2N1` (configuration not stated) came in with an EC50 of 2.29 µM.

With `CCCN1CC(=O)Nc2ccc(Cl)cc2C1c1ccccc1` (configuration not stated), the EC50 amounted to 12.8 µM.

Compound `CCCN1CC(=O)Nc2ccc(N=[N+]=[N-])cc2C1c1ccccc1` (configuration not stated) yielded a 50% effective concentration (EC50) of 11.1 µM.

In turn, `CCCC(=O)N1CC(=O)Nc2ccc(Br)cc2C1c1ccccc1` (configuration not stated) registered a 50% effective concentration (EC50) of 10.9 µM.

In turn, `CC(C1CC1)N1CC(=O)Nc2ccc(Br)cc2C1c1ccccc1` (mixture of isomers) displayed an EC50 of 5.16 µM.

In the case of `CC1CCCC1N1CC(=O)Nc2ccc(Br)cc2C1c1ccccc1` (mixture of isomers), the concentration for a half-maximal effect (EC50) stood at 3.91 µM.

In turn, `CC1CCC(N2CC(=O)Nc3ccc(Br)cc3C2c2ccccc2)C1` (mixture of isomers) yielded an EC50 of 1.29 µM.

In turn, `O=C1CN(C2CCCC2)C(c2ccccc2)c2cc(I)ccc2N1` (racemic) showed a concentration giving a half-maximal response (EC50) of 0.281 µM.

One may read the EC50 as the concentration that produces a half-maximal response. A higher EC50 goes with a less potent agent.
